# Measurements as given in PubChem BioAssay (NCI).
#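 Dose response: 5 concentrations. Exposure: 48 h. Format: 96-well plates. Endpoint: linear interpolation; highest concentration if not reached. TGI marks complete inhibition of growth.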
# Columns and labels:
# Test in all cases: DTP human tumour cell line panel, 48 h
# [1] = system: NCI-H23 lung
# [2] = system: LXFL 529 NSCLC
# [3] = system: HT29 colon
# [4] = system: MOLT-4 leukemia
# [5] = system: SK-MEL-28 melanoma
# [6] = system: DMS 114 small cell lung
# [7] = system: SK-MEL-2 melanoma
# [8] = system: HOP-18 NSCLC
# [9] = system: NCI-H522 lung
# [10] = system: IGROV1 ovarian
# [11] = system: HCC-2998 colon
# [12] = system: HOP-62 NSCLC
# [13] = system: HCT-116 colon
# [14] = system: HCT-15 colon
# [15] = system: RPMI-8226 leukemia
# [16] = system: M14 melanoma
# [17] = system: A549 NSCLC
# [18] = system: SN12C renal
# [19] = system: KM12 colon
# [20] = system: TK-10 renal
# [21] = system: SF-295 CNS
# [22] = system: ACHN renal
# [23] = system: NCI-H460 lung
# [24] = system: HOP-92 NSCLC
# [25] = system: K-562 leukemia
# [26] = system: SF-268 CNS
# [27] = system: SK-OV-3 ovarian
# [28] = system: 786-0 renal
# [29] = system: MALME-3M melanoma
# [30] = system: DMS 273 small cell lung
# [31] = system: DLD-1 colon
# [32] = system: COLO 205 colon
# [33] = system: SNB-78 CNS
# [34] = system: OVCAR-5 ovarian
# [35] = system: UO-31 renal
# [36] = system: UACC-257 melanoma
# [37] = system: OVCAR-4 ovarian
# [38] = system: HL-60(TB) leukemia
# [39] = system: NCI-H226 lung
# [40] = system: U251 CNS
# [41] = system: SF-539 CNS
# [42] = system: SNB-75 CNS
# [43] = system: CCRF-CEM leukemia
# [44] = system: OVCAR-8 ovarian
# [45] = system: M19-MEL melanoma
# [46] = system: XF 498 CNS
# [47] = system: EKVX NSCLC
# [48] = system: OVCAR-3 ovarian
# [49] = system: KM20L2 colon
# [50] = system: UACC-62 melanoma
# [51] = system: SR leukemia
# [52] = system: SNB-19 CNS
# [53] = system: SK-MEL-5 melanoma
# [54] = system: CAKI-1 renal
# [55] = system: RXF 393 renal
# [56] = system: A498 renal
# [57] = system: LOX IMVI melanoma
# [58] = system: SW-620 colon
smiles,measurement,setting,value
CCn1c2ccccc2c2ccc3c(c21)C(=O)C=CC3=O,TGI,[1],51.1 µM
same,TGI,[2],3.56 µM
same,TGI,[3],42.1 µM
same,TGI,[4],17.2 µM
same,TGI,[5],33.3 µM
same,TGI,[6],21.7 µM
same,TGI,[7],44 µM
same,TGI,[8],23.2 µM
same,TGI,[9],4.52 µM
same,TGI,[10],14.8 µM
same,TGI,[11],38.5 µM
same,TGI,[12],40 µM
same,TGI,[13],15.4 µM
same,TGI,[14],25.7 µM
same,TGI,[15],> 100 µM
same,TGI,[16],14.9 µM
same,TGI,[17],> 100 µM
same,TGI,[18],33.5 µM
same,TGI,[19],27.4 µM
same,TGI,[20],30 µM
same,TGI,[21],44.5 µM
same,TGI,[22],30.2 µM
same,TGI,[23],45.5 µM
same,TGI,[24],30.3 µM
same,TGI,[25],9.19 µM
same,TGI,[26],40 µM
same,TGI,[27],34 µM
same,TGI,[28],3.3 µM
same,TGI,[29],22 µM
same,TGI,[30],33.8 µM
same,TGI,[31],14.9 µM
same,TGI,[32],24.1 µM
same,TGI,[33],57.5 µM
same,TGI,[34],44.1 µM
same,TGI,[35],21.6 µM
same,TGI,[36],27.7 µM
same,TGI,[37],14.2 µM
same,TGI,[38],12.9 µM
same,TGI,[39],32.8 µM
same,TGI,[40],31.7 µM
same,TGI,[41],44 µM
same,TGI,[42],63.3 µM
same,TGI,[43],> 100 µM
same,TGI,[44],29 µM
same,TGI,[45],25.8 µM
same,TGI,[46],12.9 µM
same,TGI,[47],30 µM
same,TGI,[48],26.6 µM
N#CC(C#N)=C1NC(=O)CC(=O)N1,TGI,[1],> 100 µM
same,TGI,[2],> 100 µM
same,TGI,[49],> 100 µM
same,TGI,[3],> 100 µM
same,TGI,[4],> 100 µM
same,TGI,[6],> 100 µM
same,TGI,[50],> 100 µM
same,TGI,[51],> 100 µM
same,TGI,[9],> 100 µM
same,TGI,[10],> 100 µM
same,TGI,[11],> 100 µM
same,TGI,[12],> 100 µM
same,TGI,[13],> 100 µM
same,TGI,[52],> 100 µM
same,TGI,[14],> 100 µM
same,TGI,[15],> 100 µM
same,TGI,[53],> 100 µM
same,TGI,[16],> 100 µM
same,TGI,[17],> 100 µM
same,TGI,[18],> 100 µM
same,TGI,[19],> 100 µM
same,TGI,[20],> 100 µM
same,TGI,[21],> 100 µM
same,TGI,[23],> 100 µM
same,TGI,[54],> 100 µM
same,TGI,[24],> 100 µM
same,TGI,[25],> 100 µM
same,TGI,[26],> 100 µM
same,TGI,[27],> 100 µM
same,TGI,[28],> 100 µM
same,TGI,[29],> 100 µM
same,TGI,[30],> 100 µM
same,TGI,[31],> 100 µM
same,TGI,[55],> 100 µM
same,TGI,[32],> 100 µM
same,TGI,[33],> 100 µM
same,TGI,[34],> 100 µM
same,TGI,[35],> 100 µM
same,TGI,[36],> 100 µM
same,TGI,[37],> 100 µM
same,TGI,[38],> 100 µM
same,TGI,[39],> 100 µM
same,TGI,[40],> 100 µM
same,TGI,[41],> 100 µM
same,TGI,[56],> 100 µM
same,TGI,[42],> 100 µM
same,TGI,[43],> 100 µM
same,TGI,[57],> 100 µM
same,TGI,[44],> 100 µM
same,TGI,[45],> 100 µM
same,TGI,[46],> 100 µM
same,TGI,[47],> 100 µM
same,TGI,[58],> 100 µM
same,TGI,[48],> 100 µM
